# Data: US20200237852A1, “Small Molecule Enhancers of Paneth Cell Function and Differentiation” (Massachusetts Institute of Technology, priority 2019, published 2020)
# Columns and labels:
# Type in all cases: cell-based, C57BL/6 mice
# [1] = tested on: ISC-enriched organoids in ENR+CD; assay: 384-well secondary screen in ENR+CD incl. early vs. full treatment, secreted LYZ (LYZ.NS, LYZ.S); conditions: 6-day ENR+CD+treatment vs ENR+CD+DMSO; cutoff 0.89, 8 replicates
# [2] = tested on: conventional organoid (ENR); assay: 384-well screen in conventional organoid (ENR), secreted LYZ (LYZ.NS, LYZ.S); conditions: 6-day ENR differentiation compared with ENR+CD
# [3] = tested on: ENR+CD and ENR organoid populations; assay: Population RNA-seq of organoids; conditions: 3 days of treatment, all media conditions controlled, FDR<0.01
# Source text: To further assess the potential interaction of Wnt agonist CHIR99021 (C) and Notch inhibitor DAPT (D) with XPO1 inhibitors, we carried out an experiment where we assessed bulk organoid population transcriptomes (with RNA-seq) from multiple variations on growth media, XPO1 inhibitor, and duration of treatment (FIG. 12A). To characterize the resulting cell phenotypes, we used aggregate scores of geneset enrichment (based on module scoring as implemented in^7) from the in vivo Paneth and related enteroendocrine cell populations (genesets taken from^6). We see that again for both ENR+CD treated (FIG. 12B) and ENR treated (FIG. 12C) organoid populations, XPO1 inhibition drives enrichment in Paneth cell defining genes, principally at 3 days of treatment. […]
# Population RNA-seq was performed using a derivative of the Smart-Seq2 protocol for single cells^1,2. […] Libraries were pooled post-Nextera and cleaned using Agencourt AMPure SPRI beads with successive 0.7× and 0.8× ratio SPRIs and sequenced with an Illumina 75 Cycle NextSeq500/550v2 kit (Illumina FC-404-2005) with loading density at 2.2 pM, with paired end 35 cycle read structure. Samples were sequenced at an average read depth of 8.44 million reads per sample and a total of 96 samples. […]
smiles,measurement,setting,value
O=C(/C=C\n1cnc(-c2cc(C(F)(F)F)cc(C(F)(F)F)c2)n1)NNc1cnccn1 [KPT-330],validation in secondary screen (SSMD above cutoff for both LYZ.NS and LYZ.S),[1],multiple validated doses
same,mean fold change in LYZ.NS/ATP and LYZ.S/ATP (LYZ secretion per cell) in ENR,[2],reasonable increases in LYZ secretion per cell in ENR
same,identity of the majority of significantly up-regulated genes relative to no treatment (DESeq2),[3],known Paneth cell lineage-defining genes
